Source: patent publication US11702422B2, “Imidazopyridazines as modulators of IL-17” (Janssen Pharmaceutica NV, priority 2020, dated 2023)
pIC50: −log10 of the molar value.

What was measured:
[1] = target: IL-17A(FLAG-Tagged): IL-17RA(His-Tagged) (Homo sapiens, UniProt Q16552, K93Q); assay: IL-17A(FLAG-Tagged): IL-17RA(His-Tagged) Binding Disruption Eu-HTRF Assay; details: IL-17A/IL-17RA binding disruption, simple average if tested more than once
Summary of the method: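 IC50 comes from a one-site competition fit of the HTRF 665/620 nm ratio. Compound dilutions (2-fold, 22 points) were held 1 h rt with FLAG-tagged IL-17A dimer, then His-tagged IL-17RA plus Eu-cryptate anti-FLAG and D2 anti-His antibodies were added for 2 h rt.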

[2] = system: IL-17A-induced G-CSF production in human normal keratinocyte (NHK); assay: NHK Assay: IL-17A-induced G-CSF production in human normal keratinocytes; type: cell-based; details: adult normal human keratinocytes, IL-17A 5 ng/mL, 24 h, simple average if tested more than once
Summary of the method: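 Compound is first combined with recombinant human IL-17A for 1 h at rt, and the mix is added to adult normal human keratinocytes so that IL-17A is 5 ng/mL. After 24 h at 37° C in 5% FBS, G-CSF released into the medium is read by HTRF and IC50 derived.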

Chain of UniProt Q16552 (Q16552 with tags, fused parts or gaps K93Q): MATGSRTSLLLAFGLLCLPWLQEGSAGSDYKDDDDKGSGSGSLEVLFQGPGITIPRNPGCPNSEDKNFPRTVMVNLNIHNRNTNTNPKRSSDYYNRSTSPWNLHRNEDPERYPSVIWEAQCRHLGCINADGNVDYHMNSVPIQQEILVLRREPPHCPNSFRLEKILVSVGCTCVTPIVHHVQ

SMILES	pIC50 [1]	pIC50 [2]	pIC50 ([2]; Homo sapiens, Keratinocyte)
CCC(CC(=O)N[C@@H](c1cnn2cc([C@@H](NC(=O)c3nonc3C)C3CCC(F)(F)CC3)nc2c1)C1CC1)CC(F)(F)F (single isomer, unassigned) [Example 343, N—((S)-(7-((R)-Cyclopropyl((S*)-3-ethyl-5,5,5-trifluoropentanamido)methyl)imidazo[1,2-b]pyridazin-2-yl)(4,4-difluorocyclohexyl)methyl)-4-methyl-1,2,5-oxadiazole-3-carboxamide]	6.77	6.37	
O=C(N[C@H](c1cn2ncc([C@H](NC(=O)[C@@H](O)CC(F)(F)F)C3CC3)cc2n1)C1CCC(F)(F)CC1)c1cnn(CC(F)(F)F)n1 (relative stereo) [Example 31, N—((S)-(7-((R*)-Cyclopropyl((S*)-4,4,4-trifluoro-2-hydroxybutanamido)methyl)imidazo[1,2-b]pyridazin-2-yl)(4,4-difluorocyclohexyl)methyl)-2-(2,2,2-trifluoroethyl)-2H-1,2,3-triazole-4-carboxamide]	6.44		5.89
CCOc1conc1C(=O)N[C@H](c1cn2ncc([C@H](NC(=O)CCC(F)(F)F)C3CC3)cc2n1)C1CCC(F)(F)CC1 [Example 373, N—((S)-(7-((R)-Cyclopropyl(4,4,4-trifluorobutanamido)methyl)imidazo[1,2-b]pyridazin-2-yl)(4,4-difluorocyclohexyl)methyl)-4-ethoxyisoxazole-3-carboxamide]	7.21		6.62
CC(C)n1nccc1C(=O)N[C@H](c1cn2ncc(C(NC(=O)CC3(C(F)(F)F)CC3)C3(C#N)CC3)cc2n1)C1CCC(F)(F)CC1 (single isomer, unassigned) [Example 434, N—((S)-(7-((R*)-(1-Cyanocyclopropyl)(2-(1-(trifluoromethyl)cyclopropyl)acetamido)methyl)imidazo[1,2-b]pyridazin-2-yl)(4,4-difluorocyclohexyl)methyl)-1-isopropyl-1H-pyrazole-5-carboxamide]	5.48	< 4.70	
O=C(CC(C(F)(F)F)C(F)(F)F)NC(c1cnn2cc([C@@H](NC(=O)c3ccccc3)C3CCC(F)(F)CC3)nc2c1)C1CC1 (single isomer, unassigned) [Example 17, N—((S)-(7-((S*)-Cyclopropyl(4,4,4-trifluoro-3-(trifluoromethyl)butanamido)methyl)imidazo[1,2-b]pyridazin-2-yl)(4,4-difluorocyclohexyl)methyl)benzamide]	5.89	5.92	
O=C(CC1CC(F)(F)C1)N[C@@H](c1cnn2cc([C@@H](NC(=O)[C@@H]3C[C@H]3C(F)(F)F)C3CCC(F)(F)CC3)nc2c1)C1CC1 (relative stereo) [Example 144, (Trans-1R*,2R*)—N—((S)-(7-((R)-Cyclopropyl(2-(3,3-difluorocyclobutyl)acetamido)methyl)imidazo[1,2-b]pyridazin-2-yl)(4,4-difluorocyclohexyl)methyl)-2-(trifluoromethyl)cyclopropane-1-carboxamide]	5.85		5.15
CC(C)n1nccc1C(=O)N[C@H](c1cn2ncc([C@H](NC(=O)COC(F)(F)F)C3CC3)cc2n1)C1CCC(F)(F)CC1 [Example 276, N—((S)-(7-((R)-Cyclopropyl(2-(trifluoromethoxy)acetamido)methyl)imidazo[1,2-b]pyridazin-2-yl)(4,4-difluorocyclohexyl)methyl)-1-isopropyl-1H-pyrazole-5-carboxamide]	6.82		6.85
Cc1cncc(C(=O)N[C@H](c2cn3ncc([C@H](NC(=O)CCC(F)(F)F)C4CC4)cc3n2)C2CCC(F)(F)CC2)c1 [Example 454, N—((S)-(7-((R)-Cyclopropyl(4,4,4-trifluorobutanamido)methyl)imidazo[1,2-b]pyridazin-2-yl)(4,4-difluorocyclohexyl)methyl)-5-methylnicotinamide]	6.49		5.47
O=C(CCC(F)(F)F)N[C@@H](c1cnn2cc([C@@H](NC(=O)c3cccc(C(F)F)c3)C3CCC(F)(F)CC3)nc2c1)C1CC1 [Example 170, N—((S)-(7-((R)-Cyclopropyl(4,4,4-trifluorobutanamido)methyl)imidazo[1,2-b]pyridazin-2-yl)(4,4-difluorocyclohexyl)methyl)-3-(difluoromethyl)benzamide]	7.39		6.66
CC(C)Oc1cncc(C(=O)N[C@H](c2cn3ncc([C@H](NC(=O)CCC(F)(F)F)C4CC4)cc3n2)C2CCC(F)(F)CC2)c1 [Example 185, N—((S)-(7-((R)-Cyclopropyl(4,4,4-trifluorobutanamido)methyl)imidazo[1,2-b]pyridazin-2-yl)(4,4-difluorocyclohexyl)methyl)-5-isopropoxynicotinamide]	7.35		6.16
Cc1nonc1C(=O)N[C@H](c1cn2ncc([C@H](NC(=O)CC3CCC3)C3CC3)cc2n1)C1CCC(F)(F)CC1 [Example 247, N—((S)-(7-((R)-(2-Cyclobutylacetamido)(cyclopropyl)methyl)imidazo[1,2-b]pyridazin-2-yl)(4,4-difluorocyclohexyl)methyl)-4-methyl-1,2,5-oxadiazole-3-carboxamide]	7.21		6.72
O=C(CCC(F)(F)F)N[C@@H](c1cnn2cc([C@@H](NC(=O)c3ccccn3)C3CCC(F)(F)CC3)nc2c1)C1CC1 [Example 456, N—((S)-(7-((R)-Cyclopropyl(4,4,4-trifluorobutanamido)methyl)imidazo[1,2-b]pyridazin-2-yl)(4,4-difluorocyclohexyl)methyl)picolinamide]	6.11		< 4.70
Cc1nonc1C(=O)N[C@H](c1cn2ncc([C@H](NC(=O)C(C)(C)CC(F)F)C3CC3)cc2n1)C1CCC(F)(F)CC1 [Example 328, N—((S)-(7-((R)-Cyclopropyl(4,4-difluoro-2,2-dimethylbutanamido)methyl)imidazo[1,2-b]pyridazin-2-yl)(4,4-difluorocyclohexyl)methyl)-4-methyl-1,2,5-oxadiazole-3-carboxamide]	5.62		< 4.70
O=C(CCC(F)(F)F)N[C@@H](c1cnn2cc([C@@H](NC(=O)c3ccnc(OC(F)F)c3)C3CCC(F)(F)CC3)nc2c1)C1CC1 [Example 186, N—((S)-(7-((R)-Cyclopropyl(4,4,4-trifluorobutanamido)methyl)imidazo[1,2-b]pyridazin-2-yl)(4,4-difluorocyclohexyl)methyl)-2-(difluoromethoxy)isonicotinamide]	6.96		6.14
Cc1nonc1C(=O)N[C@H](c1cn2ncc([C@H](NC(=O)C34CC(F)(C3)C4)C3CC3)cc2n1)C1CCC(F)(F)CC1 [Example 269, N—((S)-(7-((R)-Cyclopropyl(3-fluorobicyclo[1.1.1]pentane-1-carboxamido)methyl)imidazo[1,2-b]pyridazin-2-yl)(4,4-difluorocyclohexyl)methyl)-4-methyl-1,2,5-oxadiazole-3-carboxamide]	5.70		4.70
O=C(CCC(F)(F)F)N[C@@H](c1cnn2cc([C@@H](NC(=O)[C@H]3C[C@@H]3C(F)F)C3CCC(F)(F)CC3)nc2c1)C1CC1 (single isomer, unassigned) [Example 361]	6.68		5.77
[2H]C([2H])([2H])n1nccc1C(=O)N[C@H](c1cn2ncc([C@@H](NC(=O)CC3CC(F)(F)C3)C3CCC3)cc2n1)C1CCC(F)(F)CC1 (relative stereo) [Example 498, N—((S)-(7-((S*)-Cyclobutyl(2-(3,3-difluorocyclobutyl)acetamido)methyl)imidazo[1,2-b]pyridazin-2-yl)(4,4-difluorocyclohexyl)methyl)-1-methyl-d3)-1H-pyrazole-5-carboxamide]	6.42		4.70
[2H]C([2H])([2H])C([2H])([2H])n1nccc1C(=O)N[C@H](c1cn2ncc([C@H](NC(=O)C[C@H](C)C(F)(F)F)C3CCC3)cc2n1)C1CCC(F)(F)CC1 (relative stereo) [Example 500, N—((S)-(7-((R*)-Cyclobutyl((S*)-4,4,4-trifluoro-3-methylbutanamido)methyl)imidazo[1,2-b]pyridazin-2-yl)(4,4-difluorocyclohexyl)methyl)-1-(ethyl-d5)-1H-pyrazole-5-carboxamide]	6.82		6.85
Cc1nonc1C(=O)N[C@H](c1cn2ncc([C@H](NC(=O)CC3(C(F)(F)F)CC3)C3CC3)cc2n1)C1CCC(F)(F)CC1 [Example 245, N—((S)-(7-((R)-Cyclopropyl(2-(1-(trifluoromethyl)cyclopropyl)acetamido)methyl)imidazo[1,2-b]pyridazin-2-yl)(4,4-difluorocyclohexyl)methyl)-4-methyl-1,2,5-oxadiazole-3-carboxamide]	6.85		6.54
O=C(CC1CC(F)(F)C1)NC(CC(F)F)c1cnn2cc([C@@H](NC(=O)c3nonc3C3CC3)C3CCC(F)(F)CC3)nc2c1 (single isomer, unassigned) [Example 400, 4-Cyclopropyl-N—((S)-(7-((R*)-1-(2-(3,3-difluorocyclobutyl)acetamido)-3,3-difluoropropyl)imidazo[1,2-b]pyridazin-2-yl)(4,4-difluorocyclohexyl)methyl)-1,2,5-oxadiazole-3-carboxamide]	7.31		7.46
